Structures can show the parent of a compound that is named as a salt.
How the values were obtained:
Type in all cases: physicochemical
[1] = Aqueous vapor stress (high humidity stress, about 85% RH), deliquescence; details: for deliquescence when stressed at about 85% RH: about 24 h where stated; for deliquescence at elevated RH: elevated relative humidity
Protocol: Crystalline forms of Compound I were analyzed by at least one of X-ray powder diffraction (XRPD), differential scanning calorimetry (DSC), thermogravimetric analysis (TGA), dynamic vapor sorption (DVS), solution proton nuclear magnetic resonance spectroscopy (^1H NMR), KF titration, and aqueous vapor stress experiments. XRPD patterns of Compound I were collected with a PANalytical X'Pert PRO MPD diffractometer using mostly the following experimental setting: 45 kV, 40 mA, Kα1=1.5406 Å, scan range 2-40° 2θ, step size 0.0167° 2θ. The DSC analysis was conducted on a TA Instruments Q2000 differential scanning calorimeter using 10° C./min heating rate over the 20° C. to 250° C. temperature range or above. The TGA analysis was conducted on a TA Instruments 2950 thermogravimetric analyzer using a 10° C./min heating rate over the 20° C. to 350° C. temperature range. ^1H NMR spectra were acquired with an Agilent DD2-400 spectrometer using DMSO-d6 with tetramethylsilane (TMS). KF analysis was performed using a Mettler Toledo DL39 Karl Fischer titrator with a Stromboli drying oven attachment set at about 110° C. Aqueous vapor stress experiments were conducted by placing a sample in a 85% RH jar for a specified duration.

[2] = Kinetic aqueous solubility / solubility in water of salt and co-crystal forms
[3] = Dynamic vapor sorption (DVS) moisture uptake; details: for moisture uptake (DVS): at about 90% RH; for hygroscopicity (DVS analysis): classification in words
[4] = Relative stability of solid forms (competitive slurries); details: for thermodynamic / physical stability of the solid form: statement in words; for relative stability in competitive slurries with Compound I phosphate Form I: MeOH/EtOAc solvent system

deliquescence when stressed at about 85% RH [1]	kinetic aqueous solubility [2]	Compound	also measured
evidence of deliquescence	about 6 mg/mL	Cc1noc(C)c1-c1cc(C(O)(c2ccccn2)c2ccccn2)c2nc(C3CC3)[nH]c2c1 [Compound I HCl Material B, (2-cyclopropyl-6-(3,5-dimethylisoxazol-4-yl)-1H-benzo[d]imidazol-4-yl)di(pyridin-2-yl)methanol]	
	about 4 mg/mL	Cc1noc(C)c1-c1cc(C(O)(c2ccccn2)c2ccccn2)c2nc(C3CC3)[nH]c2c1 [mixture of Compound I sulfate Material A and Compound I sulf] [(2-cyclopropyl-6-(3,5-dimethylisoxazol-4-yl)-1H-benzo[d]imidazol-4-yl)di(pyridin-2-yl)methanol]	
does not deliquesce		Cc1noc(C)c1-c1cc(C(O)(c2ccccn2)c2ccccn2)c2nc(C3CC3)[nH]c2c1 [Compound I gentisate Material A, (2-cyclopropyl-6-(3,5-dimethylisoxazol-4-yl)-1H-benzo[d]imidazol-4-yl)di(pyridin-2-yl)methanol]	
	about 5 mg/mL	Cc1noc(C)c1-c1cc(C(O)(c2ccccn2)c2ccccn2)c2nc(C3CC3)[nH]c2c1 [Compound I mesylate Material A, (2-cyclopropyl-6-(3,5-dimethylisoxazol-4-yl)-1H-benzo[d]imidazol-4-yl)di(pyridin-2-yl)methanol]	deliquescence at elevated RH [1]: shows evidence of deliquescence
	about 13 mg/mL	Cc1noc(C)c1-c1cc(C(O)(c2ccccn2)c2ccccn2)c2nc(C3CC3)[nH]c2c1 [Compound I mesylate Material C, (2-cyclopropyl-6-(3,5-dimethylisoxazol-4-yl)-1H-benzo[d]imidazol-4-yl)di(pyridin-2-yl)methanol]	deliquescence at elevated RH [1]: a tendency to deliquesce

Second part, the compound before the results:

Compound	deliquescence when stressed at about 85% RH [1]	kinetic aqueous solubility [2]	also measured
Cc1noc(C)c1-c1cc(C(O)(c2ccccn2)c2ccccn2)c2nc(C3CC3)[nH]c2c1 [Compound I xinafoate Form I, (2-cyclopropyl-6-(3,5-dimethylisoxazol-4-yl)-1H-benzo[d]imidazol-4-yl)di(pyridin-2-yl)methanol]	does not deliquesce		
Cc1noc(C)c1-c1cc(C(O)(c2ccccn2)c2ccccn2)c2nc(C3CC3)[nH]c2c1 [Compound I besylate Material A, (2-cyclopropyl-6-(3,5-dimethylisoxazol-4-yl)-1H-benzo[d]imidazol-4-yl)di(pyridin-2-yl)methanol]	does not show any signs of deliquescence	about 1 mg/mL	
Cc1noc(C)c1-c1cc(C(O)(c2ccccn2)c2ccccn2)c2nc(C3CC3)[nH]c2c1 [Compound I sulfate Material A, (2-cyclopropyl-6-(3,5-dimethylisoxazol-4-yl)-1H-benzo[d]imidazol-4-yl)di(pyridin-2-yl)methanol]	no evidence of deliquescence	about 4 mg/mL	
Cc1noc(C)c1-c1cc(C(O)(c2ccccn2)c2ccccn2)c2nc(C3CC3)[nH]c2c1 [Compound I sulfate Material B, (2-cyclopropyl-6-(3,5-dimethylisoxazol-4-yl)-1H-benzo[d]imidazol-4-yl)di(pyridin-2-yl)methanol]	no evidence of deliquescence	about 4 mg/mL	
Cc1noc(C)c1-c1cc(C(O)(c2ccccn2)c2ccccn2)c2nc(C3CC3)[nH]c2c1 [Compound I tartrate Material A, (2-cyclopropyl-6-(3,5-dimethylisoxazol-4-yl)-1H-benzo[d]imidazol-4-yl)di(pyridin-2-yl)methanol]	does not deliquesce	about 15 mg/mL	
Cc1noc(C)c1-c1cc(C(O)(c2ccccn2)c2ccccn2)c2nc(C3CC3)[nH]c2c1 [Compound I mesylate Material G, (2-cyclopropyl-6-(3,5-dimethylisoxazol-4-yl)-1H-benzo[d]imidazol-4-yl)di(pyridin-2-yl)methanol]			moisture uptake (DVS) [3]: about 25%; hygroscopicity (DVS analysis) [3]: very hygroscopic
Cc1noc(C)c1-c1cc(C(O)(c2ccccn2)c2ccccn2)c2nc(C3CC3)[nH]c2c1 [Compound I Form I, (2-cyclopropyl-6-(3,5-dimethylisoxazol-4-yl)-1H-benzo[d]imidazol-4-yl)di(pyridin-2-yl)methanol]			moisture uptake (DVS) [3]: about 0.4%; hygroscopicity (DVS analysis) [3]: slightly hygroscopic; thermodynamic / physical stability of the solid form [4]: most thermodynamically stable form of Compound I
Cc1noc(C)c1-c1cc(C(O)(c2ccccn2)c2ccccn2)c2nc(C3CC3)[nH]c2c1 [Compound I edisylate Material A, (2-cyclopropyl-6-(3,5-dimethylisoxazol-4-yl)-1H-benzo[d]imidazol-4-yl)di(pyridin-2-yl)methanol]	does not show any signs of deliquescence	about 1 mg/mL	
Cc1noc(C)c1-c1cc(C(O)(c2ccccn2)c2ccccn2)c2nc(C3CC3)[nH]c2c1 [Compound I Form II, (2-cyclopropyl-6-(3,5-dimethylisoxazol-4-yl)-1H-benzo[d]imidazol-4-yl)di(pyridin-2-yl)methanol]			thermodynamic / physical stability of the solid form [4]: unstable mono-IPA solvate that may convert to Compound I Form I at ambient conditions
Cc1noc(C)c1-c1cc(C(O)(c2ccccn2)c2ccccn2)c2nc(C3CC3)[nH]c2c1 [Compound I phosphate Form V, (2-cyclopropyl-6-(3,5-dimethylisoxazol-4-yl)-1H-benzo[d]imidazol-4-yl)di(pyridin-2-yl)methanol]			relative stability in competitive slurries with Compound I phosphate Form I [4]: complete conversion of Compound I phosphate Form V to Compound I phosphate Form I
Cc1noc(C)c1-c1cc(C(O)(c2ccccn2)c2ccccn2)c2nc(C3CC3)[nH]c2c1 [Compound I phosphate Form IV, (2-cyclopropyl-6-(3,5-dimethylisoxazol-4-yl)-1H-benzo[d]imidazol-4-yl)di(pyridin-2-yl)methanol]			relative stability in competitive slurries with Compound I phosphate Form I [4]: complete conversion of Compound I phosphate Form IV to Compound I phosphate Form I
Cc1noc(C)c1-c1cc(C(O)(c2ccccn2)c2ccccn2)c2nc(C3CC3)[nH]c2c1 [Compound I phosphate Form III, (2-cyclopropyl-6-(3,5-dimethylisoxazol-4-yl)-1H-benzo[d]imidazol-4-yl)di(pyridin-2-yl)methanol]			moisture uptake (DVS) [3]: about 0.7%; hygroscopicity (DVS analysis) [3]: slightly hygroscopic; solubility ([2]; water): ~6000 µg/mL
Cc1noc(C)c1-c1cc(C(O)(c2ccccn2)c2ccccn2)c2nc(C3CC3)[nH]c2c1 [Compound I tosylate Form I, (2-cyclopropyl-6-(3,5-dimethylisoxazol-4-yl)-1H-benzo[d]imidazol-4-yl)di(pyridin-2-yl)methanol]	does not show any evidence of deliquescence	about 3 mg/mL	
Cc1noc(C)c1-c1cc(C(O)(c2ccccn2)c2ccccn2)c2nc(C3CC3)[nH]c2c1 [Compound I napsylate Material A, (2-cyclopropyl-6-(3,5-dimethylisoxazol-4-yl)-1H-benzo[d]imidazol-4-yl)di(pyridin-2-yl)methanol]	does not deliquesce		

— US20180141939A1, “SOLID FORMS OF A BET INHIBITOR” (Gilead Sciences, Inc., priority 2016, published 2018)
